Source: patent publication US7550588B2, “Homotropanes with central nervous system activity” (The Research Foundation of State University of New York, priority 2006, dated 2009)
Like-named read-outs stand apart in the source and are kept apart here.

What was measured:
[1] = target: T1, serotonin transporter (SERT) (Rattus norvegicus, UniProt P31652); assay: Displacement of [3H]paroxetine binding at 5-HT transport sites in rat frontal cortex membranes; conditions: for Ratio SERT/DAT: SERT binding value divided by DAT binding value; for binding affinity at SERT (in words): summary of Table 1
T1 construct: striatum and frontal cortex dissected from frozen Sprague-Dawley rat brains (Pel-Freez, Rogers, Ark.); tissue Pel-Freez, Rogers, Ark; host or cells: rat frontal cortex membranes (frozen Sprague-Dawley rat brains)

[2] = target: T2, Dopamine transporter (DAT) (Rattus norvegicus, UniProt P23977); assay: Displacement of [125I]RTI-55 binding at dopamine transport sites in rat striatum membranes; conditions: for binding affinity at DAT (in words): summary of Table 1
T2 construct: striatum and frontal cortex dissected from frozen Sprague-Dawley rat brains (Pel-Freez, Rogers, Ark.); tissue Pel-Freez, Rogers, Ark; host or cells: rat striatum membranes (frozen Sprague-Dawley rat brains)

[3] = [3H]paroxetine 0.4 nM, rat frontal cortex membranes, Cheng-Prusoff, mean ± S.E.M., tested as racemates, read-out: Binding (nM) SERT (converted)
[4] = [125I]RTI-55 10 pM, rat striatum membranes, mean ± S.E.M., at least three experiments, tested as racemates, read-out: Binding (nM) DAT (converted)

T2 sequence (P23977 whole entry): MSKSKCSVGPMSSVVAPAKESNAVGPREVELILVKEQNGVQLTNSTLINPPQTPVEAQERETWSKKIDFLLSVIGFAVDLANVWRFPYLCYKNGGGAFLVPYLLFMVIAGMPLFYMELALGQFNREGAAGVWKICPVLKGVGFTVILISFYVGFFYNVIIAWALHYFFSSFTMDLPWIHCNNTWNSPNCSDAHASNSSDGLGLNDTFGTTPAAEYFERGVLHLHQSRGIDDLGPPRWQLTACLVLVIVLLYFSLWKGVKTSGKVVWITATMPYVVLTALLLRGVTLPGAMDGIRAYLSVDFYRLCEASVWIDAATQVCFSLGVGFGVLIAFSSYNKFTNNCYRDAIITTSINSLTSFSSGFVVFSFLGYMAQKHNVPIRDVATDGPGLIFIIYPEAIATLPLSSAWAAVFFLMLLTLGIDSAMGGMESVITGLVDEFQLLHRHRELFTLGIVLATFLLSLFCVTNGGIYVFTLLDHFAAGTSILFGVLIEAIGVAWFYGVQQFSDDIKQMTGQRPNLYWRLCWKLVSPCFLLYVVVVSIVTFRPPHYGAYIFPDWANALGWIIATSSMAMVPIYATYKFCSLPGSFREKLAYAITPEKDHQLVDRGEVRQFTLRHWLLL
T1 sequence (P31652 whole entry): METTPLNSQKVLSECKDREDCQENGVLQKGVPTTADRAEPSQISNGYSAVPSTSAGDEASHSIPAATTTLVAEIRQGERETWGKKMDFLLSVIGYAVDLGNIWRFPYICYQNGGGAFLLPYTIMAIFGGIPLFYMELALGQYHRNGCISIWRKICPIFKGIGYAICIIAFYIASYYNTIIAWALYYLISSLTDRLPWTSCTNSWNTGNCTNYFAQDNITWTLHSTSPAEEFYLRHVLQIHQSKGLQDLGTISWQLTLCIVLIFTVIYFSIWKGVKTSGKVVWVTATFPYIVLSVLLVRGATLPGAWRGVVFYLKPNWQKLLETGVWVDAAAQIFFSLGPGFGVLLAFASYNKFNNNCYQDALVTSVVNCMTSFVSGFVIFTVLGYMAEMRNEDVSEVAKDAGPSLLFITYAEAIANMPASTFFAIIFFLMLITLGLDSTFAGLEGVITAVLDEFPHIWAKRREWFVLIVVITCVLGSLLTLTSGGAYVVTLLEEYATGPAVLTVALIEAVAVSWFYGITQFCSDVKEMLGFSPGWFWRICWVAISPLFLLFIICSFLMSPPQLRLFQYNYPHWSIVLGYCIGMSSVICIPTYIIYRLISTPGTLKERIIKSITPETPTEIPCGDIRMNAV

Compound | Ki [1] [nM] | Ratio SERT/DAT [1] | binding affinity at SERT (in words) [1] | IC50 [2] [nM] | binding affinity at DAT (in words) [2] | melting point [°C] | Ki [1, 3] [nM] | IC50 [2, 4] [nM] | selectivity for SERT ([1]; SERT versus DAT binding)
CCC(=O)[C@@H]1C2CCC(C[C@@H]1c1ccc3ccccc3c1)CN2C (relative stereo) [12b, 6-Methyl-3β-(2-naphthyl)-4β-propionyl-6-azabicyclo[3.2.2]nonane] | 13.4 ± 0.0138 | 4.8 | strongest binding affinity | 2.8 | strongest binding affinity |  |  |  | 
CCC(=O)C1C(c2ccc(C)cc2)C(c2ccccc2)C2(C)CCC1N(C)C2 (stereo not drawn) [12j, 1,6-Dimethyl-2α-phenyl-4β-propionyl-3β-(p-tolyl)-6-azabicyclo[3.2.2]-nonane] | > 2500 |  |  | 5600 |  | 141 to 144 |  |  | 
C=C(C)c1ccc([C@@H]2C[C@@H]3CC[C@@H](NC3)[C@H]2C(=O)CC)cc1 (racemic) [18b, 4β-Propionyl-3α-(4-isopropenylphenyl)-6-azabicyclo[3.2.2]nonane] |  | 0.02 | relatively strong binding |  | relatively strong binding |  | 6.48 | 370 | 
CCC(=O)[C@@H]1C2CCC(CN2)C[C@@H]1c1ccc(C)cc1 (relative stereo) [compound 19, 4β-Propionyl-3β-(p-tolyl)-6-azabicyclo [3.2.2]nonane] | 156 ± 26 | 6.3 |  | 24.9 ± 5.6 |  |  |  |  | 
CCC(=O)C1C(c2ccc(C)cc2)CC2CCC1N(C)C2=O (stereo not drawn) [compound 27, 6-Methyl-4β-propionyl-3β-(p-tolyl)-6-azabicyclo[3.2.2]nonan-7-one] |  |  | very low binding affinity |  | very low binding affinity |  | > 2500 | 7000 | 
CCC(=O)C1C(c2ccc(Cl)cc2)CC2CCC1N(C)C2 (stereo not drawn) [12d, 3β-(4-Chlorophenyl)-6-methyl-4β-propionyl-6-azabicyclo[3.2.2]nonane] | 860 | 23 |  | 38.1 |  |  |  |  | 
C=C(C)c1ccc([C@H]2C[C@@H]3CC[C@H]([C@H]2C(=O)CC)N(C)C3)cc1 (racemic) [12f, 6-Methyl-4β-propionyl-3β-(4-isopropenylphenyl)-6-azabicyclo[3.2.2]nonane] | 32.8 | 0.03 |  | 880 |  |  |  |  | most selective for SERT
CCC(=O)[C@@H]1C2CCC(C[C@H]1c1ccc(C)cc1)CN2C (relative stereo) [13a, 6-Methyl-4α-propionyl-3β-(p-tolyl)-6-azabicyclo[3.2.2]nonane] |  |  | very low binding affinity |  | very low binding affinity |  | > 2500 | 1160 ± 240 | 
CCC(=O)C1C2CCC(CC1c1ccc(C)cc1)N(C)C2 (stereo not drawn) [compound 23, 6-Methyl-2α-propionyl-3β-(p-tolyl)-6-azabicyclo[3.2.2]nonane] |  |  |  |  | very low binding affinity |  |  | 4700 ± 900 | 
C=Cc1ccc(C2CC3CCC(C2C(=O)CC)N(C)C3)cc1 (stereo not drawn) [12e, 3β-(4-Ethenylphenyl)-6-methyl-4β-propionyl-6-azabicyclo[3.2.2]nonane] | 116 | 1.9 |  | 75 |  |  |  |  | 
CCC(=O)C1C(c2ccc(C)cc2)C(C)C2(C)CCC1N(C)C2 (stereo not drawn) [12i, 1,2α,6-Trimethyl-4β-propionyl-3β-(p-tolyl)-6-azabicyclo[3.2.2]nonane] | > 2500 |  |  | 2140 |  |  |  |  | 
CCC(=O)C1C(c2ccc(C)cc2)C(c2ccccc2)C2CCC1N(C)C2 (stereo not drawn) [12h, 6-Methyl-2α-phenyl-4β-propionyl-3β-(p-tolyl)-6-azabicyclo[3.2.2]nonane] | > 2500 |  |  | 4100 |  | 172 to 173 |  |  | 
CCC(=O)[C@H]1[C@@H](c2ccc(C)cc2)[C@H](C)[C@@H]2CC[C@H]1N(C)C2 (racemic) [12g, 2α,6-Dimethyl-4β-propionyl-3β-(p-tolyl)-6-azabicyclo[3.2.2]nonane] | > 2500 |  |  | 1830 |  |  |  |  | 
CCC(=O)[C@@H]1C2CCC(C[C@H]1c1ccc3ccccc3c1)CN2C (relative stereo) [13b, 6-Methyl-3β-(2-naphthyl)-4α-propionyl-6-azabicyclo[3.2.2]nonane] | 6.2 | — 0.3 |  | 20.8 |  |  |  |  | 
CCC(=O)[C@@H]1C2CCC(C[C@@H]1c1ccc(C)cc1)CN2C (relative stereo) [12a, 6-Methyl-4β-propionyl-3β-(p-tolyl)-6-azabicyclo[3.2.2]nonane] | 2230 ± 410 | 19 |  | 117 ± 13 |  |  |  |  | 
CCC(=O)[C@@H]1C2CCC(CN2)C[C@H]1c1ccc(C)cc1 (relative stereo) [18a, 4β-Propionyl-3α-(p-tolyl)-6-azabicyclo[3.2.2]nonane] | 469 ± 32 | 2.5 | relatively strong binding | 187 ± 55 | relatively strong binding |  |  |  | 
CCC(=O)[C@H]1[C@@H](c2ccc(C(C)C)cc2)C[C@@H]2CC[C@H]1N(C)C2 (racemic) [12c, 3β-(4-Isopropylphenyl)-6-methyl-4β-propionyl-6-azabicyclo[3.2.2]nonane] | 1760 | 0.23 |  | 7500 |  |  |  |  | 
